We go through seven molecules from paper PMC9666886, “Molecular characteristics of glutathione transferase gene family in a neglect medical Spirometra tapeworm” (Frontiers in Veterinary Science, 2022).

A word on the Ki: it is a measure of affinity in units of concentration, obtained from inhibition or displacement. Low readings indicate a stronger hold on the target, high ones a looser hold on the target. The IC50 is the concentration that inhibits the measured activity by half. For orientation: Km means the substrate concentration at which the rate is half of its maximum. Usually Vmax stands for the top rate of the reaction or transport when substrate is in excess.

For data set [1], the target named is T1, rSmGST (Spirometra mansoni, UniProt I1SZ68). The data set can be described thus: biochemical. Format: biochemical. To be noted: for Ki / IC50: 4 mM GSH; for Ki: CDNB varied 0.20 to 2.0 mM, secondary plot of 1/v intercept vs inhibitor concentration; for inhibition pattern: CDNB as the variable substrate, double-reciprocal plots; for maximal slope at IC50 of fractional velocity vs log inhibitor concentration: Supplementary Figure S4; for IC50: concentration giving 50% inhibition, percent residual activity vs log inhibitor concentration, 1 mM CDNB, pH 6.5. Here is the method: (§1) The effect of temperature on rSmGST was carried out by keeping the enzyme at different temperatures (15, 20, 25, 30, 35, 40, 45, 50, and 55°C) for 10 min, and then enzyme activity was assayed immediately. The effect of pH on rSmGST was carried out using the phosphate buffer having different pH from 5.5 to 10. Activity of enzyme was determined in 100 mM potassium phosphate buffer (pH 6.5) with 1 mM l-chloro-2,4-dinitrobenzene (CDNB) and 4 mM GSH as substrates by following the change in absorbance at 340 nm (ε 1/4 9.6 mM^−1. cm^−1) for 1 min at 30°C as previously described ([28]). In the kinetic mechanism analysis of rSmGST, double reciprocal Lineweaver-Burk plot was used to graphically determine the apparent Km and Vmax values. Inhibition studies were performed according to the procedure of Tahir et al. ([29]). Different range of concentrations of Rose Bengal (RB, 0.1–1000 μM), Cibacron Blue (CB, 0.1–1000 μM), Bromosulfophtalein (BSP, 0.1–500 μM), and Tripheniltin chloride (TPT, 0.1–100 μM) were used as inhibitors respectively. The concentration of inhibitor giving 50% inhibition (IC50) was obtained by plotting the percent of residual activity vs the log of inhibitor concentration. The Ki values for each rSmGST inhibitor were determined according to methods described in Nava et al. ([30]). To ascertain which type of reversible enzyme inhibition occurs, initial-velocity enzyme reactions in the presence of the inhibitors were performed. The rSmGST was preincubated for a few seconds in the assay buffer with 4 mM GSH and inhibitor at the corresponding concentration (CB, 10, 30 μM; TPT, 4, 8 μM; BSP, 20, 60 μM and RB, 20, 60 μM). The reaction was initiated by addition of one of a range of 0.20 to 2.0 mM of different concentrations of CDNB. A set of reactions under identical conditions was performed for each inhibitor concentration and for the non-inhibitor control.

The target of data set [2] is T1, rSmGST. The data set can be described thus: Enzyme kinetics of rSmGST with the substrates GSH and CDNB (Lineweaver-Burk plot). It is filed as biochemical. To be noted: for saturation point (substrate concentration): no further increase in enzyme activity above this concentration. Here is the method:
as §1

Substrate in data set [3]: N[C@@H](CCC(=O)N[C@@H](CS)C(=O)NCC(=O)O)C(=O)O
The data set is described as above. Format: biochemical, Spirometra mansoni. To be noted: other: Lineweaver-Burk plot; GSH 0.5–5.0 mM or CDNB 0.2–2.0 mM as varied substrate; pH 6.5. Here is the method: as §1, with “To ascertain which type of reversible enzyme inhibition occurs, initial-velocity enzyme reactions in the presence of the inhibitors were performed. The rSmGST was preincubated for a few seconds in the assay buffer with 4 mM GSH and inhibitor at the corresponding concentration (CB, 10, 30 μM; TPT, 4, 8 μM; BSP, 20, 60 μM and RB, 20, 60 μM). The reaction was initiated by addition of one of a range of 0.20 to 2.0 mM of different concentrations of CDNB. A set of reactions under identical conditions was performed for each inhibitor concentration and for the non-inhibitor control.” left out

Setting [4] is: Lineweaver-Burk plot, GSH 0.5–5.0 mM or CDNB 0.2–2.0 mM as varied substrate.

Regarding `O=C1OC(c2ccc(O)c(S(=O)(=O)O)c2)(c2ccc(O)c(S(=O)(=O)O)c2)c2c(Br)c(Br)c(Br)c(Br)c21` [Bromosulfophtalein], at rSmGST [1], the inhibitory constant (Ki) was 122 µM; the inhibition pattern result is reported as “non-competitive”; the “maximal slope at IC50 of fractional velocity vs log inhibitor concentration” value was −0.27; the midpoint of inhibition, the IC50, lay at 290 µM.

For the molecule `O=[N+]([O-])c1ccc(Cl)c([N+](=O)[O-])c1` [CDNB, 1-chloro-2,4-dinitrobenzene], at rSmGST [2], the “specific activity of rSmGST toward substrate” value came to 3.12 µmol/min/mg and the “saturation point (substrate concentration)” value was determined as 1.6 mM. On rSmGST [2] (setting [4]), the Km turned out to be 6.29 mM and the maximal velocity (Vmax) worked out at 10.120 µmol/min/mL.

On to `Nc1c(S(=O)(=O)O)cc(Nc2ccc(Nc3nc(Cl)nc(Nc4ccccc4S(=O)(=O)O)n3)c(S(=O)(=O)O)c2)c2c1C(=O)c1ccccc1C2=O` [Cibacron Blue], for which, at rSmGST [1], affinity was put at a Ki of 20.1 µM, the inhibition pattern entry is reported as “uncompetitive”, the “maximal slope at IC50 of fractional velocity vs log inhibitor concentration” value was −0.51 and 11.7 µM corresponded to half-maximal inhibition (IC50).

Consider `N[C@@H](CCC(=O)N[C@@H](CS)C(=O)NCC(=O)O)C(=O)O` [GSH, glutathione], for which, at rSmGST [2], the “saturation point (substrate concentration)” value is 4.0 mM.

As to `O=C([O-])c1c(Cl)c(Cl)c(Cl)c(Cl)c1-c1c2cc(I)c(=O)c(I)c-2oc2c(I)c([O-])c(I)cc12.[Na+].[Na+]` [Rose Bengal], on rSmGST [1], affinity was put at a Ki of 57.6 µM, the inhibition pattern result is given as “uncompetitive”, the “maximal slope at IC50 of fractional velocity vs log inhibitor concentration” value is on record as −0.63 and half-maximal inhibition (IC50) required 34 µM.

Regarding `[Cl][Sn]([c]1ccccc1)([c]1ccccc1)[c]1ccccc1` [Tripheniltin chloride], at rSmGST [1], the Ki amounted to 11.7 µM, the inhibition pattern result is “non-competitive”, the “maximal slope at IC50 of fractional velocity vs log inhibitor concentration” value is recorded as −0.59 and the 50% inhibitory concentration (IC50) was 12.1 µM.

B1: rSmGST (Spirometra erinaceieuropaei) (protein)
chain: MGSLPVLEYWKIRGLAQAIRLLFHYLGQEYVEELYEAGGPPDFSREPWLKHKFNKGLDFPNLPYLIDDGFKITQSGAILEYVADKHGMLPTSAKERAVLHMLQNELSGFRASYGRLVYNPDFSKLKQGFLDELPQKLRLWSNYLGDKQWLTGDKIQYPDFNLYDFLDALQNLEPSCLKDFPNLQRYMKRFEDLDKIKEFQKSDAYIAHPFNNTVAAWRGDA
As to B1, in data set [3], the Km came out at 0.78 mM and the maximal velocity (Vmax) was 1.146 µmol/min/mL.
